In PubChem BioAssay (NCI):
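96-well plates; 48 h exposure; 5 concentrations. Endpoints by linear interpolation between flanking doses. Not reached: highest tested concentration assigned. GI50 = concentration required for 50% inhibition of growth. TGI is the concentration that stops growth completely.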

Key:
Experiment in all cases: growth of human tumour cells (NCI), 48 h
HT29 colon = tested on: HT29 colon
OVCAR-5 ovarian = tested on: OVCAR-5 ovarian
HL-60(TB) leukemia = tested on: HL-60(TB) leukemia
OVCAR-4 ovarian = tested on: OVCAR-4 ovarian
LOX IMVI melanoma = tested on: LOX IMVI melanoma
NCI-H226 lung = tested on: NCI-H226 lung
MALME-3M melanoma = tested on: MALME-3M melanoma
UACC-257 melanoma = tested on: UACC-257 melanoma
IGROV1 ovarian = tested on: IGROV1 ovarian
COLO 205 colon = tested on: COLO 205 colon
HCT-15 colon = tested on: HCT-15 colon
RPMI-8226 leukemia = tested on: RPMI-8226 leukemia
HOP-92 NSCLC = tested on: HOP-92 NSCLC
RXF 393 renal = tested on: RXF 393 renal
MDA-MB-435 = tested on: MDA-MB-435
SR leukemia = tested on: SR leukemia
BT-549 breast = tested on: BT-549 breast
SK-MEL-2 melanoma = tested on: SK-MEL-2 melanoma
NCI-H522 lung = tested on: NCI-H522 lung
PC-3 prostate = tested on: PC-3 prostate
SF-295 CNS = tested on: SF-295 CNS
DU-145 prostate = tested on: DU-145 prostate
MDA-MB-468 breast = tested on: MDA-MB-468 breast
SNB-75 CNS = tested on: SNB-75 CNS
NCI-H23 lung = tested on: NCI-H23 lung
K-562 leukemia = tested on: K-562 leukemia
UACC-62 melanoma = tested on: UACC-62 melanoma
HOP-62 NSCLC = tested on: HOP-62 NSCLC
NCI-H460 lung = tested on: NCI-H460 lung
OVCAR-8 ovarian = tested on: OVCAR-8 ovarian
SN12C renal = tested on: SN12C renal
ACHN renal = tested on: ACHN renal
786-0 renal = tested on: 786-0 renal
HS 578T breast = tested on: HS 578T breast
EKVX NSCLC = tested on: EKVX NSCLC
HCT-116 colon = tested on: HCT-116 colon
TK-10 renal = tested on: TK-10 renal
CCRF-CEM leukemia = tested on: CCRF-CEM leukemia
T-47D breast = tested on: T-47D breast
MDA-MB-231 breast = tested on: MDA-MB-231 breast
SF-268 CNS = tested on: SF-268 CNS
SK-MEL-28 melanoma = tested on: SK-MEL-28 melanoma
HCC-2998 colon = tested on: HCC-2998 colon
SNB-19 CNS = tested on: SNB-19 CNS
MCF7 breast = tested on: MCF7 breast
KM12 colon = tested on: KM12 colon
A549 NSCLC = tested on: A549 NSCLC
SK-OV-3 ovarian = tested on: SK-OV-3 ovarian
MOLT-4 leukemia = tested on: MOLT-4 leukemia
UO-31 renal = tested on: UO-31 renal
CAKI-1 renal = tested on: CAKI-1 renal
OVCAR-3 ovarian = tested on: OVCAR-3 ovarian
SF-539 CNS = tested on: SF-539 CNS
U251 CNS = tested on: U251 CNS

CC1=C2C(=C[C@@](C)(CO)[C@@H]2O)/C(=N\N)[C@](C)(O)C12CC2
GI50 (HT29 colon): 1.94 µM
TGI (HT29 colon): 8.75 µM
GI50 (OVCAR-5 ovarian): 0.518 µM
TGI (OVCAR-5 ovarian): 33.8 µM
GI50 (HL-60(TB) leukemia): 1.44 µM
TGI (HL-60(TB) leukemia): 8.87 µM
GI50 (OVCAR-4 ovarian): 2.44 µM
TGI (OVCAR-4 ovarian): 7.16 µM
GI50 (LOX IMVI melanoma): 1.62 µM
TGI (LOX IMVI melanoma): 4.99 µM
GI50 (NCI-H226 lung): 2.11 µM
TGI (NCI-H226 lung): 7.44 µM
GI50 (MALME-3M melanoma): 1.7 µM
TGI (MALME-3M melanoma): 3.25 µM
GI50 (UACC-257 melanoma): 2.25 µM
TGI (UACC-257 melanoma): 5.19 µM
GI50 (IGROV1 ovarian): 2.39 µM
TGI (IGROV1 ovarian): 7.62 µM
GI50 (COLO 205 colon): 1.65 µM
TGI (COLO 205 colon): 3.65 µM
GI50 (HCT-15 colon): 1.54 µM
TGI (HCT-15 colon): > 100 µM
GI50 (RPMI-8226 leukemia): > 100 µM
TGI (RPMI-8226 leukemia): > 100 µM
GI50 (HOP-92 NSCLC): 2.54 µM
TGI (HOP-92 NSCLC): 6.75 µM
GI50 (RXF 393 renal): 1.51 µM
TGI (RXF 393 renal): 3.26 µM
GI50 (MDA-MB-435): 2.23 µM
TGI (MDA-MB-435): 5.58 µM
GI50 (SR leukemia): 2.12 µM
TGI (SR leukemia): > 100 µM
GI50 (BT-549 breast): 1.69 µM
TGI (BT-549 breast): 4.43 µM
GI50 (SK-MEL-2 melanoma): 1.77 µM
TGI (SK-MEL-2 melanoma): 3.33 µM
GI50 (NCI-H522 lung): 1.19 µM
TGI (NCI-H522 lung): 3.64 µM
GI50 (PC-3 prostate): 2.55 µM
TGI (PC-3 prostate): 15.3 µM
GI50 (SF-295 CNS): 1.74 µM
TGI (SF-295 CNS): > 100 µM
GI50 (DU-145 prostate): 0.812 µM
TGI (DU-145 prostate): 30.5 µM
GI50 (MDA-MB-468 breast): 0.977 µM
TGI (MDA-MB-468 breast): 2.77 µM
GI50 (SNB-75 CNS): 1.36 µM
TGI (SNB-75 CNS): 4.82 µM
GI50 (NCI-H23 lung): 1.08 µM
TGI (NCI-H23 lung): 2.9 µM
GI50 (K-562 leukemia): 2.02 µM
TGI (K-562 leukemia): > 100 µM
GI50 (UACC-62 melanoma): 1.74 µM
TGI (UACC-62 melanoma): 3.23 µM
GI50 (HOP-62 NSCLC): 2.23 µM
TGI (HOP-62 NSCLC): 5.32 µM
GI50 (NCI-H460 lung): 0.42 µM
TGI (NCI-H460 lung): 6.63 µM
GI50 (OVCAR-8 ovarian): 1.86 µM
TGI (OVCAR-8 ovarian): 5.12 µM
GI50 (SN12C renal): 2.33 µM
TGI (SN12C renal): 6.66 µM
GI50 (ACHN renal): 0.86 µM
TGI (ACHN renal): 5.18 µM
GI50 (786-0 renal): 2.97 µM
TGI (786-0 renal): 9.08 µM
GI50 (HS 578T breast): 2.88 µM
TGI (HS 578T breast): 9.44 µM
GI50 (EKVX NSCLC): 2.17 µM
TGI (EKVX NSCLC): 5.52 µM
GI50 (HCT-116 colon): 1.33 µM
TGI (HCT-116 colon): > 100 µM
GI50 (TK-10 renal): 3.1 µM
TGI (TK-10 renal): 9.25 µM
GI50 (CCRF-CEM leukemia): 2.93 µM
TGI (CCRF-CEM leukemia): > 100 µM
GI50 (T-47D breast): 2.2 µM
TGI (T-47D breast): 6.71 µM
GI50 (MDA-MB-231 breast): 2.25 µM
TGI (MDA-MB-231 breast): 6.52 µM
GI50 (SF-268 CNS): 2.66 µM
TGI (SF-268 CNS): 21.8 µM
GI50 (SK-MEL-28 melanoma): 2.04 µM
TGI (SK-MEL-28 melanoma): 4.11 µM
GI50 (HCC-2998 colon): 1.79 µM
TGI (HCC-2998 colon): 3.77 µM
GI50 (SNB-19 CNS): 2.51 µM
TGI (SNB-19 CNS): 8.67 µM
GI50 (MCF7 breast): 0.405 µM
TGI (MCF7 breast): > 100 µM
GI50 (KM12 colon): 2.98 µM
TGI (KM12 colon): > 100 µM
GI50 (A549 NSCLC): 2.39 µM
TGI (A549 NSCLC): 22.8 µM
GI50 (SK-OV-3 ovarian): 2.91 µM
TGI (SK-OV-3 ovarian): 7.87 µM
GI50 (MOLT-4 leukemia): 2.4 µM
TGI (MOLT-4 leukemia): > 100 µM
GI50 (UO-31 renal): 1.65 µM
TGI (UO-31 renal): 4.66 µM
GI50 (CAKI-1 renal): 2.44 µM
TGI (CAKI-1 renal): > 100 µM
GI50 (OVCAR-3 ovarian): 2.63 µM
TGI (OVCAR-3 ovarian): 7.05 µM
GI50 (SF-539 CNS): 1.85 µM
TGI (SF-539 CNS): 3.83 µM
GI50 (U251 CNS): 0.416 µM
TGI (U251 CNS): > 100 µM
